Source: PMC7561186, “Rational design of balanced dual-targeting antibiotics with limited resistance” (PLoS Biology, 2020)
Several values for one entry are separate records, joined by “and”; a condition that tells them apart may be missing. Identical values can stand only once. Like-named read-outs stand apart in the source and are kept apart here.

Columns and labels:
[1] = system: S. aureus VISA ATCC 700699 GyrB / ParE mutants; assay: MIC of spontaneous resistant mutants (single-step and second-step); format: cell-based; conditions: Staphylococcus aureus
Description: MICs were determined using a standard serial broth microdilution technique according to the CLSI guidelines. Briefly, bacterial strains were inoculated onto MHBII agar plates and were grown overnight at 37 °C. Next, 3 individual colonies from each strain were inoculated into 1 mL MHBII medium and propagated at 37 °C, 250 rpm overnight. In the cases of Enterococcus and Streptococcus sp., cells were plated to BHI agar plates, and BHI broth was used to determine MICs. […] Following dilutions, each well was seeded with 5×10^4 bacterial cells. All measurements were performed in 3 parallel replicates and to avoid possible edge effects in microwell plates, side rows (A and H) were filled with sterile medium. Following inoculations, plates were covered with lids and wrapped in polyethylene plastic bags to minimize evaporation but allow for O2 transfer. Plates were incubated at 37 °C under continuous shaking at 150 rpm for 18 hours. After incubation, OD600 of each well was measured using a BioTek Synergy 2 microplate reader.

[2] = system: S. aureus ATCC 700699 (VISA); assay: microbe, parasite or virus in culture; format: cell-based; conditions: Staphylococcus aureus, read-out: MIC in adapted strains
Description: Adaptive laboratory evolution experiments followed an established protocol for automated laboratory evolution and aimed to maximize the drug-resistance increment during a fixed time period. […] Experiments were conducted in 96-well plates, in MHBII medium, by utilizing a checkerboard layout to minimize and monitor cross-contamination. These 96-well deep-well plates (0.5 mL, polypropylene, V-bottom) were covered with sandwich covers (Enzyscreen BV) to ensure an optimal oxygen exchange rate and limit evaporation and were shaken at 150 rpm, 37 °C. […] Following cell transfer, each culture was allowed to grow for 48 hours. At each transfer, cell growth was monitored by measuring the OD600 in a BioTek Synergy 2 plate reader. […] Accordingly, only 1 of the 4 populations was retained for each independently evolving strain. This protocol was designed to avoid population extinction and to ensure that populations with the highest level of resistance are propagated further during adaptive evolution. […] Adaptation of populations was terminated after 20 transfers, i.e., 40 days. Following adaptation, cells from each final population were spread onto MHBII agar plates, and individual colonies were isolated. Next, one colony from each adapted line were subjected to capillary sequencing of gyrB and parE to assess their genotype.

[3] = target: T1, S. aureus topoisomerase IV (Staphylococcus aureus, UniProt P0C1S7); assay: S. aureus topoisomerase IV gel-based assay; format: biochemical; conditions: quadruplicates
T1 construct: purchased Inspiralis Ltd., Norwich, UK

[4] = system: S. aureus ATCC 700699 VISA; assay: Time-dependent killing; format: cell-based; conditions: for Time-kill bacterial count: 10xMIC; for Colony numbers: time-kill raw counts, Samples 1-3
Description: Time-dependent killing experiments were performed as previously. S. aureus ATCC 700699 VISA cells were inoculated to MHBII agar plates and grown overnight at 37 °C. Next, 3 independent stationer-phase starter cultures were grown at 37 °C, 250 rpm overnight, in 3 × 1 mL MHBII broth. Next, 100-fold diluted cultures were prepared from each in 20 mL fresh MHBII medium and grown at 37 °C, 250 rpm until early exponential phase (OD600 = 0.3–0.4; i.e., 5 × 10^5 cells/mL). […] Cells were treated with antibiotics in Erlenmeyer flasks at 37 °C, 150 rpm for 48 hours. […] Next, 50 μL from each dilution were plated on MHBII agar plates, and plates were incubated overnight at 37 °C to calculate CFU per mL.

Topoisomerase IV = conditions: high-throughput relaxation assay ref 37; cited from earlier work
[5] = cited from earlier work

T1 sequence (P0C1S7 whole entry): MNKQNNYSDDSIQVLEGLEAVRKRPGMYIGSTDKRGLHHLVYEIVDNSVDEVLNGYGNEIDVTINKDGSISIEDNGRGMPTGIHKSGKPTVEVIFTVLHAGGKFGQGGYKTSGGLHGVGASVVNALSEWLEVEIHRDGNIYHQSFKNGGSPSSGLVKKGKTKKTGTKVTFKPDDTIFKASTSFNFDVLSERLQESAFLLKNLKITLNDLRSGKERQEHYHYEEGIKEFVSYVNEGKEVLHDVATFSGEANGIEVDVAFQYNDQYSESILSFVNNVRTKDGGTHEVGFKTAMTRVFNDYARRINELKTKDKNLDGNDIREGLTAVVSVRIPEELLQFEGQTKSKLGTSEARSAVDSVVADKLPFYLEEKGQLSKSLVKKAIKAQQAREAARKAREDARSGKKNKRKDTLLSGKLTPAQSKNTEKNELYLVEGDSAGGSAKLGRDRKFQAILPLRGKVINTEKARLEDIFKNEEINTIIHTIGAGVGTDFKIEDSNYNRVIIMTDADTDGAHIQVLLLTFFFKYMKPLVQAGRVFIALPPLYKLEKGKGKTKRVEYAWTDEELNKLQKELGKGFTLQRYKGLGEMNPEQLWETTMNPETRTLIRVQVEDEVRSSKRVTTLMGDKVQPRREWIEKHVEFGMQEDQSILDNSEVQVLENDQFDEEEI
T1 sequence (P0C1U9 whole entry, further chain): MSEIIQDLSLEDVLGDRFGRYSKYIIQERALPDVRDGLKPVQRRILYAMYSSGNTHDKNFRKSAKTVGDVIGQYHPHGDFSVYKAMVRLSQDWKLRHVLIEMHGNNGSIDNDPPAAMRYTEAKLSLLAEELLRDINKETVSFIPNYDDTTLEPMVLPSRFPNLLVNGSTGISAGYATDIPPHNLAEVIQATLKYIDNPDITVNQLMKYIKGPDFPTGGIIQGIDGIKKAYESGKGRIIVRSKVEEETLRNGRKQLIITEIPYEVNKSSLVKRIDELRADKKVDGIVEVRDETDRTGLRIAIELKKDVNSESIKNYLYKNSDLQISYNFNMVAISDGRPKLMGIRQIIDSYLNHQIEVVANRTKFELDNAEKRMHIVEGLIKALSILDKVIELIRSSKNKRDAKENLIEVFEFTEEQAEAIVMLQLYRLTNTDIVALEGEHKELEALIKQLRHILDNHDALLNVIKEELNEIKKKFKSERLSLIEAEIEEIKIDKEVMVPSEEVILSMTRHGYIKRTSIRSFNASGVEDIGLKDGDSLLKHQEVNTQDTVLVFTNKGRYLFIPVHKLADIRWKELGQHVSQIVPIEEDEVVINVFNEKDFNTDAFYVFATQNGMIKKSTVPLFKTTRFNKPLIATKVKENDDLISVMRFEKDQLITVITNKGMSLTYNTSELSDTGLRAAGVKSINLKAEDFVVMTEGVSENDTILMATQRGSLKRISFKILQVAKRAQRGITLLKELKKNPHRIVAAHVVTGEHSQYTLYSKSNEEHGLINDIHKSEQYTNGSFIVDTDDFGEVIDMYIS

CO[C@@H]1[C@@H](OC(N)=O)[C@@H](O)[C@H](Oc2ccc3c(O)c(NC(=O)c4ccc(O)c(CC=C(C)C)c4)c(=O)oc3c2C)OC1(C)C [Novobiocin]
MIC ([1]; VISA GyrB I175T): 0.032 µg/mL | MIC ([1]; VISA GyrB R144G): 4 µg/mL | MIC ([1]; VISA GyrB R144I): 8 µg/mL | MIC ([1]; VISA wt, read-out: MIC): 0.05 µg/mL | MIC [2]: 16 µg/mL | IC50 [3]: 2 µM | Time-kill bacterial count ([4]; time 0 hour): 2.80E+05 | Time-kill bacterial count ([4]; time 3 hour): 9.90E+04 | Time-kill bacterial count ([4]; time 6 hour): 4.70E+04 | Time-kill bacterial count ([4]; time 12 hour): 5.80E+03 | Time-kill bacterial count ([4]; time 18 hour): 1.50E+03 | Time-kill bacterial count ([4]; time 24 hour): 8.00E+02 | Time-kill bacterial count ([4]; time 48 hour): 6.40E+02 | Colony numbers ([4]; time 0 h, Dilution 100): 145 and 132 and 137 | Colony numbers ([4]; time 3 h, Dilution 100): 63 and 38 and 48 | Colony numbers ([4]; time 6 h, Dilution 100): 21 and 29 | Colony numbers ([4]; time 12 h, Dilution 10): 33 and 23 and 31 | Colony numbers ([4]; time 18 h, Dilution 1): 81 and 65 and 84

O=C(O)C(=O)Nc1ccc2nc(NC(=O)c3cc(Br)c(Br)[nH]3)sc2c1 [ULD0]
IC50 (Topoisomerase IV): 10 ± 2 µM

O=c1ccc2ncc(=O)n3c2n1C[C@H]3CN1CCC(NCc2cc3c(cn2)OCCC3)CC1 [Gepotidacin]
increment in resistance level by combination of 2 specific target mutations [5]: 2,000 fold | resistance level (MIC) of double target mutant [5]: 256 µg/mL
